According to ChEMBL document CHEMBL1201862, “PubChem BioAssay data set” (2004):
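Following 48 hours of exposure in 96-well plates, responses at five concentrations were used to interpolate endpoints linearly. GI50 is the concentration that inhibits growth by half.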 Calls of active or inactive are those of the source. No stated cut-off is given here; in the data, active = GI50 up to about 1.1 µM and inactive = higher.

Tests used:
Test in all cases: NCI tumour cell line growth inhibition, 48 h
[1] = tested on: 786-0
[2] = tested on: A549
[3] = tested on: HCT-116
[4] = tested on: Hs-578T
[5] = tested on: K562
[6] = tested on: KM12
[7] = tested on: LOX IMVI
[8] = tested on: NCI-H460
[9] = tested on: NCI-H522
[10] = tested on: OVCAR-3
[11] = tested on: OVCAR-8
[12] = tested on: PC-3
[13] = tested on: SF-268
[14] = tested on: SF-539
[15] = tested on: SK-MEL-5
[16] = tested on: SN12C
[17] = tested on: SR
[18] = tested on: SW-620
[19] = tested on: RXF 393
[20] = tested on: SNB-75

SMILES | GI50 [1] | GI50 [2] | GI50 [3] | GI50 [4] | GI50 [5] | GI50 [6] | GI50 [7] | GI50 [8] | GI50 [9] | GI50 [10] | GI50 [11] | GI50 [12] | GI50 [13] | GI50 [14] | GI50 [15] | GI50 [16] | GI50 [17] | GI50 [18] | GI50 [19] | GI50 [20]
COc1cc(C2SCC(=O)N2c2ccccn2)cc(OC)c1OC (stereo not given) | > 100 µM (inactive) | > 100 µM (inactive) | 79.6 µM (inactive) | > 100 µM (inactive) | 48.4 µM (inactive) | 62.1 µM (inactive) | > 100 µM (inactive) | > 100 µM (inactive) | 57.7 µM (inactive) | > 100 µM (inactive) | > 100 µM (inactive) | > 100 µM (inactive) | > 100 µM (inactive) | 65 µM (inactive) | 55 µM (inactive) | > 100 µM (inactive) | 31.6 µM (inactive) | 76 µM (inactive) | – | –
Cc1ccc2[nH]c3[nH]c(=S)[nH]c(=O)c3c2c1 | > 100 µM (inactive) | > 100 µM (inactive) | > 100 µM (inactive) | > 100 µM (inactive) | 96.4 µM (inactive) | > 100 µM (inactive) | > 100 µM (inactive) | – | > 100 µM (inactive) | 72.9 µM (inactive) | > 100 µM (inactive) | – | > 100 µM (inactive) | > 100 µM (inactive) | > 100 µM (inactive) | > 100 µM (inactive) | > 100 µM (inactive) | > 100 µM (inactive) | > 100 µM (inactive) | 40 µM (inactive)
O=C(NC/C=C/Br)NC1CCNc2ccccc21 (stereo not given) | 26.6 µM (inactive) | 32.2 µM (inactive) | 30.1 µM (inactive) | – | 30.1 µM (inactive) | 38.2 µM (inactive) | 25.6 µM (inactive) | 34.9 µM (inactive) | 74 µM (inactive) | 47.2 µM (inactive) | 52.7 µM (inactive) | 37.3 µM (inactive) | 77.4 µM (inactive) | 20.5 µM (inactive) | 19.5 µM (inactive) | 45.4 µM (inactive) | 35 µM (inactive) | 52.8 µM (inactive) | 29.2 µM (inactive) | 45 µM (inactive)
NCCCNc1ccc2c3c(nn2CCNCCO)-c2c(O)ccc(O)c2C(=O)c13 | 2.38 µM (inactive) | – | – | 0.787 µM (active) | – | 3.78 µM (inactive) | 0.927 µM (active) | – | 1.18 µM (inactive) | 5.13 µM (inactive) | – | 2.84 µM (inactive) | 1.35 µM (inactive) | – | 0.925 µM (active) | – | 0.253 µM (active) | 1.15 µM (inactive) | – | 0.889 µM (active)
Cc1ccc(S(=O)(=O)n2c3ccc(Br)cc3c3nc4ccccc4nc32)cc1 | > 100 µM (inactive) | > 100 µM (inactive) | > 100 µM (inactive) | > 100 µM (inactive) | > 100 µM (inactive) | > 100 µM (inactive) | > 100 µM (inactive) | > 100 µM (inactive) | 0.649 µM (active) | > 100 µM (inactive) | > 100 µM (inactive) | > 100 µM (inactive) | > 100 µM (inactive) | – | > 100 µM (inactive) | > 100 µM (inactive) | – | > 100 µM (inactive) | > 100 µM (inactive) | > 100 µM (inactive)
Cc1cccc(Nc2cn(CCOc3ccccc3)c(=O)[nH]c2=O)c1 | 34.2 µM (inactive) | 22.7 µM (inactive) | 27.5 µM (inactive) | 6.41 µM (inactive) | 58.6 µM (inactive) | 31.3 µM (inactive) | 11.9 µM (inactive) | 32.7 µM (inactive) | – | 18.7 µM (inactive) | – | 23.4 µM (inactive) | 30 µM (inactive) | – | 25.8 µM (inactive) | 24.6 µM (inactive) | > 100 µM (inactive) | > 100 µM (inactive) | 34.8 µM (inactive) | –
O=C(c1ccccc1)n1cc(-c2ccccc2)c2c(=O)nc[nH]c21 | > 100 µM (inactive) | > 100 µM (inactive) | > 100 µM (inactive) | > 100 µM (inactive) | – | > 100 µM (inactive) | > 100 µM (inactive) | – | > 100 µM (inactive) | > 100 µM (inactive) | > 100 µM (inactive) | > 100 µM (inactive) | > 100 µM (inactive) | > 100 µM (inactive) | > 100 µM (inactive) | > 100 µM (inactive) | – | > 100 µM (inactive) | > 100 µM (inactive) | 17.4 µM (inactive)
CC(C)(C)OC(=O)N1CCCC1C(=O)NCCNc1ccc(NCCNC(=O)C2CCCN2C(=O)OC(C)(C)C)c2c1C(=O)c1ccccc1C2=O (stereo not given) | 14.8 µM (inactive) | 15.8 µM (inactive) | 13.2 µM (inactive) | 18.7 µM (inactive) | < 0.01 µM (active) | 12.2 µM (inactive) | 12.4 µM (inactive) | – | 13 µM (inactive) | 14.1 µM (inactive) | 5.83 µM (inactive) | 11.1 µM (inactive) | 31.3 µM (inactive) | 16.1 µM (inactive) | 0.112 µM (active) | – | 14.3 µM (inactive) | 13.8 µM (inactive) | – | 20.4 µM (inactive)
